Measurements: ChEMBL document CHEMBL1201862, “PubChem BioAssay data set” (2004)
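Five concentrations, 48 hours, 96-well plates. GI50 is the concentration that inhibits growth by half.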 Calls of active or inactive are those of the source. Rule as the data show it: active = GI50 up to about 1.1 µM and inactive = higher.

Legend:
Assay in all cases: NCI anticancer screen, dose series, 48 h
SNB-75 = system: SNB-75
HCC 2998 = system: HCC 2998
COLO 205 = system: COLO 205
M19-MEL = system: M19-MEL
A498 = system: A498
UACC-257 = system: UACC-257
OVCAR-5 = system: OVCAR-5
UO-31 = system: UO-31
HCT-15 = system: HCT-15
NCI-H226 = system: NCI-H226
CAKI-1 = system: CAKI-1
TK-10 = system: TK-10
HOP-92 = system: HOP-92
786-0 = system: 786-0
HOP-62 = system: HOP-62
DU-145 = system: DU-145
Hs-578T = system: Hs-578T
T47D = system: T47D
MDA-MB-231 = system: MDA-MB-231
MDA-MB-435 = system: MDA-MB-435

Structure (SMILES)	GI50 (SNB-75)	GI50 (HCC 2998)	GI50 (COLO 205)	GI50 (M19-MEL)	GI50 (A498)	GI50 (UACC-257)	GI50 (OVCAR-5)	GI50 (UO-31)	GI50 (HCT-15) [µM]	GI50 (NCI-H226)	GI50 (CAKI-1)	GI50 (TK-10)	GI50 (HOP-92)	GI50 (786-0)	GI50 (HOP-62)	GI50 (DU-145)	GI50 (Hs-578T)	GI50 (T47D)	GI50 (MDA-MB-231)	GI50 (MDA-MB-435)
COC(=O)/C(Cl)=C1/CC1COCc1ccccc1 (stereo unspecified)	47.8 µM (inactive)	> 10 µM (inactive)	21.2 µM (inactive)	33.3 µM (inactive)	22.6 µM (inactive)	34.7 µM (inactive)	74.3 µM (inactive)	28.8 µM (inactive)	17.1	32.3 µM (inactive)	22.6 µM (inactive)	30.8 µM (inactive)	22.9 µM (inactive)	19.7 µM (inactive)	> 100 µM (inactive)					
CCC12CCCC(=O)N1C(CO)C(c1ccccc1)O2 (stereo unspecified)	> 100 µM (inactive)		> 100 µM (inactive)	> 100 µM (inactive)	> 100 µM (inactive)	> 100 µM (inactive)	> 100 µM (inactive)		> 100		> 100 µM (inactive)	> 100 µM (inactive)	> 100 µM (inactive)	> 100 µM (inactive)	> 100 µM (inactive)					
N#CC(N)(C(=O)CCC(=O)Nc1cccc(Cl)c1)c1ccc(Cl)cc1 (stereo unspecified)	> 100 µM (inactive)		> 100 µM (inactive)	> 100 µM (inactive)	> 100 µM (inactive)	> 100 µM (inactive)		> 100 µM (inactive)	> 100	> 100 µM (inactive)	> 100 µM (inactive)	> 100 µM (inactive)	> 100 µM (inactive)	> 100 µM (inactive)	> 100 µM (inactive)					
Clc1ccc(C2=NN(c3ccccc3)C3c4cc(Br)ccc4OCC23)cc1 (stereo unspecified)	> 100 µM (inactive)	> 100 µM (inactive)	> 100 µM (inactive)	> 100 µM (inactive)	> 100 µM (inactive)	99.1 µM (inactive)	> 100 µM (inactive)	> 100 µM (inactive)				> 100 µM (inactive)	> 100 µM (inactive)	> 100 µM (inactive)	> 100 µM (inactive)					
OCC1OC(n2cnc3c2NC=NC[C@H]3O)CC1O (stereo partly specified)	337 µM (inactive)	387 µM (inactive)	472 µM (inactive)	354 µM (inactive)	422 µM (inactive)	407 µM (inactive)	> 500 µM (inactive)	460 µM (inactive)	> 500	484 µM (inactive)		> 500 µM (inactive)	398 µM (inactive)	455 µM (inactive)	417 µM (inactive)	324 µM (inactive)	> 500 µM (inactive)	258 µM (inactive)	> 500 µM (inactive)	> 500 µM (inactive)
O=C(Nc1ccc(Cl)cc1Cl)C(=O)C(C(=O)c1ccncc1)C1OC(=O)c2ccccc21 (stereo unspecified)	> 100 µM (inactive)	> 100 µM (inactive)	> 100 µM (inactive)	> 100 µM (inactive)	> 100 µM (inactive)	> 100 µM (inactive)	> 100 µM (inactive)	> 100 µM (inactive)	> 100	> 100 µM (inactive)	> 100 µM (inactive)	> 100 µM (inactive)	> 100 µM (inactive)	> 100 µM (inactive)	> 100 µM (inactive)					
COc1ccc(S(=O)(=O)NC(C)C(=O)O)cc1 (stereo unspecified)	70.5 µM (inactive)		> 100 µM (inactive)	> 100 µM (inactive)	> 100 µM (inactive)	> 100 µM (inactive)	> 100 µM (inactive)	> 100 µM (inactive)	> 100		> 100 µM (inactive)	> 100 µM (inactive)	> 100 µM (inactive)	> 100 µM (inactive)						
O=S1(=O)NN=C(NCc2ccc(Cl)c(Cl)c2)c2ccccc21		> 100 µM (inactive)	> 100 µM (inactive)	> 100 µM (inactive)	> 100 µM (inactive)	> 100 µM (inactive)	> 100 µM (inactive)	> 100 µM (inactive)	36	> 100 µM (inactive)	> 100 µM (inactive)		50.1 µM (inactive)	> 100 µM (inactive)						
CCCN(CCC)CCc1cc(C(C)=O)n(S(=O)(=O)c2ccc(C)cc2)c1	> 100 µM (inactive)	> 100 µM (inactive)	> 100 µM (inactive)	> 100 µM (inactive)	> 100 µM (inactive)	54.6 µM (inactive)	> 100 µM (inactive)	83.2 µM (inactive)	> 100	> 100 µM (inactive)	84.7 µM (inactive)	> 100 µM (inactive)	> 100 µM (inactive)	> 100 µM (inactive)	> 100 µM (inactive)					
COc1ccccc1/N=C(\N)N/N=C/c1c[nH]c2ccccc12	12.3 µM (inactive)	2.55 µM (inactive)	1.67 µM (inactive)	11.1 µM (inactive)		2.39 µM (inactive)	13.9 µM (inactive)	13.3 µM (inactive)	4.2	14.4 µM (inactive)	13.3 µM (inactive)	16.8 µM (inactive)		13.3 µM (inactive)	16.3 µM (inactive)					
CCCCCCC(=O)OC[n+]1ccc2c(C)c3[nH]c4ccc(OC)cc4c3c(C)c2c1	1.13 µM (inactive)	0.421 µM (active)	0.207 µM (active)	0.953 µM (active)	0.863 µM (active)	1.01 µM (active)	1.05 µM (active)	0.83 µM (active)	0.117	0.476 µM (active)	0.865 µM (active)	2.05 µM (inactive)	1.18 µM (inactive)	0.0708 µM (active)	0.105 µM (active)	0.55 µM (active)	1.32 µM (inactive)	0.883 µM (active)	0.269 µM (active)	0.454 µM (active)
CC(C)(C)c1cc2ccc(C(N)=O)cc2c(=O)[nH]1	27.2 µM (inactive)	> 100 µM (inactive)	> 100 µM (inactive)	> 100 µM (inactive)	> 100 µM (inactive)	> 100 µM (inactive)	> 100 µM (inactive)	63.8 µM (inactive)	> 100	56 µM (inactive)	80.2 µM (inactive)	> 100 µM (inactive)	95.1 µM (inactive)	> 100 µM (inactive)	> 100 µM (inactive)					
CCCCCCCCCCCCN(O)C(=O)c1ccccc1	22.9 µM (inactive)	30.3 µM (inactive)		37.8 µM (inactive)	18.8 µM (inactive)	18.8 µM (inactive)	21.5 µM (inactive)	24.3 µM (inactive)	9.64			46.5 µM (inactive)	17.7 µM (inactive)	16.9 µM (inactive)						
Nc1ccc(C(=O)NN2C(=O)C(Cl)C2c2cccc([N+](=O)[O-])c2)cc1 (stereo unspecified)	18.7 µM (inactive)	24.3 µM (inactive)	19 µM (inactive)	19.8 µM (inactive)	28.5 µM (inactive)	23.1 µM (inactive)	21.1 µM (inactive)	17.4 µM (inactive)	18.6	20.2 µM (inactive)	19.5 µM (inactive)	18.7 µM (inactive)	21.4 µM (inactive)	18.7 µM (inactive)	24.6 µM (inactive)					
CCOc1ccc2c(c1)[n+]([O-])c(-c1ccccc1)c(N)[n+]2[O-]	> 100 µM (inactive)	68.5 µM (inactive)	30.5 µM (inactive)	62.4 µM (inactive)	82.6 µM (inactive)	41.5 µM (inactive)	> 100 µM (inactive)	96.4 µM (inactive)	55.2	> 100 µM (inactive)	35.6 µM (inactive)	> 100 µM (inactive)		> 100 µM (inactive)	71.9 µM (inactive)					
CC(=O)Nc1ccc(C2CC(c3ccc([N+](=O)[O-])cc3)=Nc3ccccc3[S+]2[O-])cc1 (stereo unspecified)	16.9 µM (inactive)	16.3 µM (inactive)	21.8 µM (inactive)	15.2 µM (inactive)		28.6 µM (inactive)	50.6 µM (inactive)	16.7 µM (inactive)	20.6	20.4 µM (inactive)	> 10 µM (inactive)	28.8 µM (inactive)		9.64 µM (inactive)	22.1 µM (inactive)					
Cc1c2cc[n+]([O-])cc2c(C)c2c1[nH]c1ccccc12	5.77 µM (inactive)	12.5 µM (inactive)	2.15 µM (inactive)	13.6 µM (inactive)	7.33 µM (inactive)	17.7 µM (inactive)	4.59 µM (inactive)	5.47 µM (inactive)	5.22	5.37 µM (inactive)	7.05 µM (inactive)	5.32 µM (inactive)	10.2 µM (inactive)	2.74 µM (inactive)	5.74 µM (inactive)	8.73 µM (inactive)	3.54 µM (inactive)	2.14 µM (inactive)	4.28 µM (inactive)	6.61 µM (inactive)
